Test results from patent publication US5314920A, “Ethynyl-alanine aryl/alkylsulfonyl-terminated amino-diol compounds for treatment of hypertension” (G. D. Searle & Co., priority 1992, dated 1994).
Non-standard residues stand in square brackets, D forms with d. Residues, ends and D or L forms follow the SMILES beside them. *: point of attachment. Sta = CC(C)C[C@H](N)[C@@H](O)CC(=O)O; Isovaleryl = CC(C)CC(=O)*

Key:
human renin = molecular target: T1, human renin (Homo sapiens, UniProt P00797); test: Human Renin Inhibition in vitro; type: biochemical; settings: pH 7.4, 37° C., two hours, human plasma, angiotensin I by radioimmunoassay
T1 construct: purchased National Institute for Biological Standards, London
T1 sequence (P00797 67-406): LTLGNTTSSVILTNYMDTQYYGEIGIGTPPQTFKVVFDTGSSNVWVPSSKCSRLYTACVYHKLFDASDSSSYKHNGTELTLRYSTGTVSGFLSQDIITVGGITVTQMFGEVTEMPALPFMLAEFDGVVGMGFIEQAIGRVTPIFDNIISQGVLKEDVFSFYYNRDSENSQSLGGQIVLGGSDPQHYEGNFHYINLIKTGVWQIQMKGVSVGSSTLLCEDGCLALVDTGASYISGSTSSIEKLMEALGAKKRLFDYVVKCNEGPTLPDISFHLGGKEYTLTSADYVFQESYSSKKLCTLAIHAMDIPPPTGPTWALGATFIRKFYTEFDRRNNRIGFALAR
Method: Compounds of Formula I were evaluated as inhibitors of human renin in an vitro assay, as follows: This human renin inhibition test has been previously described in detail [Papaioannou et al., Clinical and Experimental Hypertension, A7 (9), 1243-1257 (1985)]. Human renin was obtained from the National Institute for Biological Standards, London. An incubation mixture was prepared containing the following components: in a total volume of 0.25 mL: 100 mM Tris-acetate buffer at pH 7.4, 25×10^-6 Goldblatt units of renin, 0.05 mL of plasma from human volunteers taking oral contraceptives, 6.0 mM Na-EDTA, 2.4 mM phenylmethyl sulfonyl fluoride, 1.5 mM 8-hydroxyquinoline, 0.4 mg/mL bovine serum albumin (BSA), and 0.024 mg/mL neomycin sulfate. This mixture was incubated for two hours at 37° C. in the presence or absence of renin inhibitors. The produced angiotensin I was determined by radioimmunoassay (New England Nuclear kit). Test compounds to be assayed were dissolved in DMSO and diluted with 100 mM Tris-acetate buffer at pH 7.4 containing 0.5% BSA to the appropriate concentration. The final concentration of organic solvent in the reaction mixture was less than 1%. Control incubations at 37° C. were used to correct for effects of organic solvent on renin activity.

renin = settings: Umezawa et al, J. Antibiot. (Tokyo), 23, 259-262 (1970); cited from earlier work
pepsin = settings: Umezawa et al, J. Antibiot. (Tokyo), 23, 259-262 (1970); cited from earlier work
cathepsin D = settings: Umezawa et al, J. Antibiot. (Tokyo), 23, 259-262 (1970); cited from earlier work
hog renin = settings: after the injection of hog renin into nephrectomized rats; Gross et al, Science, 175, 656 (1971); cited from earlier work

C#CC[C@H](NC(=O)C(Cc1ccccc1)CS(=O)(=O)C(C)(C)C)C(=O)N[C@@H](CC1CCCCC1)[C@@H](O)[C@@H](O)CC(C)C (stereo partly drawn) [Example 1, N-[[1R*-[[1S,1R*(cyclohexylmethyl)-2S*,3R*-dihydroxy-5-methylhexyl]amino]carbonyl]-3-butynyl]-α-[[(1,1-dimethylethyl)sulfonyl]methyl]benzenepropanamide] showed an IC50 (human renin) of 0.23 nM.
Work on C#CC[C@H](NC(=O)[C@H](Cc1ccccc1)CS(=O)(=O)C(C)(C)C)C(=O)N[C@@H](CC1CCCCC1)[C@@H](O)[C@@H](O)CC(C)C [Example 2, N-[[1R*-[[1S,1R*(cyclohexylmethyl)-2S*,3R*-dihydroxy-5-methylhexyl]amino]carbonyl]-3-butynyl]-αR*-[[(1,1-dimethylethyl)sulfonyl]methyl]benzenepropanamide] yielded an IC50 (human renin) of 0.17 nM.
Compound C#CC[C@H](NC(=O)CCS(=O)(=O)c1ccccc1)C(=O)N[C@@H](CC1CCCCC1)[C@@H](O)[C@@H](O)CC(C)C [Example 3, N-[1S,1R*(cyclohexylmethyl)-2S*,3R*-dihydroxy-5-methylhexyl]-2R*-[[1-oxo-3-[phenylsulfonyl]propyl]amino]-4-pentynamide] has an inhibition at 0.1 µM (human renin; @ 100 nM) of 34%.
For CC(C)CC(=O)N[C@H](C(=O)N[C@H](C(=O)N[C@@H](CC(C)C)[C@@H](O)CC(=O)N[C@@H](C)C(=O)N[C@@H](CC(C)C)[C@@H](O)CC(=O)O)C(C)C)C(C)C [pepstatin] (Isovaleryl-VV[Sta]A[Sta]-OH), the inhibitor of renin (renin) is listed as “inhibitor”, the inhibitor of pepsin (pepsin) is listed as “inhibitor” and the “inhibitor of cathepsin D” value (cathepsin D) is listed as “inhibitor”. For the same compound, the “blood pressure in vivo” value (hog renin) was “reduce blood pressure”.
